Test results published in paper PMC6680770, “Effect of Ticagrelor, a Cytochrome P450 3A4 Inhibitor, on the Pharmacokinetics of Tadalafil in Rats” (Pharmaceutics, 2019).
“And” between values parts separate entries of the source, which are not always exact repeats. Equal entries are not always repeated. Where two headings read alike, the source gives them in different places.

How the values were obtained:
[1] = longer than sildenafil or vardenafil; cited from earlier work
[2] = Pharmacokinetic study of tadalafil after oral administration to non-pretreated and ticagrelor-pretreated rats, non-compartment analysis; assay type: in vivo, Sprague-Dawley rats; details: tadalafil 2 mg/kg oral; for Cmax / AUC(0-inf) / CL/F / Tmax / half-life / AUC(0-t): Sprague-Dawley, rat, plasma, po, 2 mg/kg, mean ± SD, n = 10; for AUC(0-t): read-out: AUC0–24
Experimental: The concentrations of tadalafil were analyzed by a liquid chromatography tandem-mass spectrometry (LC-MS/MS) system equipped with Agilent 1290 series and Agilent 6495 Triple Quad LC/MS (Agilent Technologies, Santa Clara, CA, USA). A YMC-Triart C18 column (50 × 2.0 mm, 1.9 µm; YMC Inc., Wilmington, NC, USA) was used. The mobile phase was a mixture of 0.2% formic acid in acetonitrile and 0.2% formic acid in distilled water (50:50, v/v), and the flow rate was 0.4 mL/min. The temperature of the column and autosampler were set as 30 °C and 4 °C, respectively. The positive ion mode using Agilent jet stream electrospray ionization (AJS-ESI) was applied to record the scan mass spectra. The ion transitions of tadalafil and IS were set as 390.4→268.1 m/z and 876.4→308.1 m/z, respectively, and detected with a multiple reaction monitoring (MRM) mode. The collision energies for tadalafil and IS were 10 V and 30 V, respectively. The cell accelerator voltage was 5 V and the dwell time was set as 200 ms. The source parameters were set as follows: Gas temperature 200 °C, gas flow 14 L/min, nebulizer 20 psi, sheath gas heater 250 °C, sheath gas flow 11 L/min, capillary 3000 V, and nozzle voltage 1500 V.
(§1) The experiment was performed in a parallel design. A total of 20 rats were randomly divided into two groups. The control group, Group N (n = 10, non-pretreated rats), was orally administered for 7 days only with the vehicle (normal saline/polyethylene glycol 400/dimethyl sulfoxide = 40:20:20). Group T (n = 10, ticagrelor-pretreated rats), an experimental group, received 10 mg/kg of ticagrelor in the vehicle once a day for 7 days orally. Thereafter, on the seventh day, tadalafil (2 mg/kg) was orally administered 30 min after the final administration of the vehicle or ticagrelor. Doses of all samples were calculated according to the weight of the rats and administered using gavage. The dose of ticagrelor and tadalafil given to rats were determined by converting the human doses (90 mg for ticagrelor and 20 mg for tadalafil) to animal doses with body surface area, according to the United States Food and Drug Administration guidelines. Blood (0.3 mL) was collected from the retro-orbital plexus or the jugular vein at predetermined time-points (0, 0.33, 0.67, 1, 1.5, 2, 4, 6, 8, 12, and 24 h) after the oral administration. Samples were centrifuged at 15,000× g for 5 min at 4 °C. The plasma was collected and stored at −20 °C until the concentration of tadalafil was analyzed by LC-MS/MS.
Protein precipitation was applied to extract tadalafil from plasma. Briefly, 200 µL of acetonitrile (0.2 v/v% formic acid) containing 500 ng/mL of IS was added to 20 µL of the plasma sample. After shaking for 5 min, the mixture was centrifuged at 15,000× g for 5 min. The supernatant (150 µL) was transferred and 5 µL of the sample was injected into the LC-MS/MS.
Pharmacokinetic data were analyzed based on the non-compartment analysis of WinNonlin software 8.1 (Pharsight Corp., Sunnyvale, CA, USA). The maximum plasma concentration of tadalafil (maximum concentration (Cmax)) and the time to reach the maximal plasma concentration (Tmax) of tadalafil were determined from the plasma concentration-time profiles. The area under the plasma concentration vs time curve from 0 to 24 h (AUC0–24) was calculated by the linear trapezoidal rule and the area under the plasma concentration vs time curve from 0 h to infinite time (AUC0–∞) was estimated by extrapolating time to infinity. The elimination half-life (T1/2) and apparent total clearance (CL/F) were determined from the ln 2/elimination rate constant and dose/AUC0–∞, respectively.

[3] = set-up: method as in PMID 14622499; details: cited from earlier work
[4] = One-compartment pharmacokinetic modeling of the plasma concentration-time profile of tadalafil; assay type: in vivo, Sprague-Dawley rats; details: one-compartment model; for k el: Sprague-Dawley, rat, plasma, read-out: Ke (converted); for k el / Ka / V/F: tadalafil 2 mg/kg oral, mean ± SD, n = 10
Experimental: as §1
Pharmacokinetic modeling of the plasma concentration-time profile of tadalafil was performed using a one-compartment model to investigate the absorption and elimination rates. The parameters of the one-compartment model of tadalafil were estimated based on data from Group N and Group T.
In this model, the shift of the tadalafil amount in the gut compartment and the central compartment is described by the following equations [33]: dG/dt= −Ka·G dC/dt=Ka·G−Ke·C where G and C represent the amount of tadalafil in the gut compartment and the central compartment, respectively. Ka indicates the absorption rate constant from the gut compartment to the central compartment. Ke indicates the elimination rate constant from the central compartment […]. Each equation was applied to both Group N and Group T data through the classic model of WinNolin software 8.1 (Pharsight Corp., Sunnyvale, CA, USA).
Predicted plasma concentrations of tadalafil (Conpred) using the one-compartment model were estimated by the following equation [34]: Conpred= C/(V/F) where V/F indicates the central volume of distribution of tadalafil.

CYP3A = test: Classification of ticagrelor as CYP3A inhibitor from changes in tadalafil AUC and clearance; assay type: in vivo; details: weak inhibitor = increases AUC of CYP substrate 1.25-fold to 2-fold or reduces clearance by 20–50%; inferred from tadalafil AUC (1.61-fold) and clearance (37%) in rats
Experimental: as §1, with “Blood (0.3 mL) was collected from the retro-orbital plexus or the jugular vein at predetermined time-points (0, 0.33, 0.67, 1, 1.5, 2, 4, 6, 8, 12, and 24 h) after the oral administration. Samples were centrifuged at 15,000× g for 5 min at 4 °C.” left out
Pharmacokinetic data were analyzed based on the non-compartment analysis of WinNonlin software 8.1 (Pharsight Corp., Sunnyvale, CA, USA). The maximum plasma concentration of tadalafil (maximum concentration (Cmax)) and the time to reach the maximal plasma concentration (Tmax) of tadalafil were determined from the plasma concentration-time profiles. […]

[5] = Group T, ticagrelor-pretreated rats (10 mg/kg, 7 days)
[6] = rats, ticagrelor pretreatment, p < 0.05
[7] = rats, ticagrelor-pretreated vs non-pretreated
[8] = Group T, ticagrelor-pretreated rats
[9] = ticagrelor-pretreated vs non-pretreated rats

In the case of `CN1CC(=O)N2[C@H](c3ccc4c(c3)OCO4)c3[nH]c4ccccc4c3C[C@@H]2C1=O` [tadalafil, Tadalafil], the “clinical efficacy (duration)” value [1] is given as “up to 36 h”, the Cmax ([2]; Group N, non-pretreated rats (vehicle 7 days)) is given as 376 ± 72.8 ng/mL and the AUC(0-inf) ([2]; Group N, non-pretreated rats) is given as 3070 ± 743 ng·h/mL. It also gave a CL/F ([2]; Group N, non-pretreated rats) of 11.3 mL/min/kg, a Tmax ([2]; Group N, non-pretreated rats) of 1.45 ± 0.5 h and a half-life ([2]; Group N, non-pretreated rats) of 3.15 ± 0.23 h. For the same compound, the AUC(0-t) ([2]; Group N, non-pretreated rats) was 3050 ± 732 ng·h/mL, the Cmax ([2]; Group T, ticagrelor-pretreated rats (10 mg/kg oral once a day, 7 days)) was 433 ± 120 ng/mL and the AUC(0-inf) [2, 5] was 5100 ± 1800 ng·h/mL. It also gave a CL/F [2, 5] of 7.17 mL/min/kg, a Tmax [2, 5] of 3.22 ± 1.3 h and a half-life [2, 5] of 4.47 ± 0.89 h. The AUC(0-t) [2, 5] was 4900 ± 1590 ng·h/mL, the “increase of AUC of tadalafil by co-administration with ticagrelor” value ([2]; rats, ticagrelor pretreatment) was “approximately 61%” and the “increase of Tmax, Group T compared to Group N” value ([2]; rats, ticagrelor pretreatment) was 2.22 fold. The “reduction of tadalafil clearance, Group T compared with Group N” value ([2]; rats, ticagrelor pretreatment) was 37%, the “increase of Cmax, Group T compared to Group N” value ([2]; rats, ticagrelor pretreatment, no significant difference (p = 0.3332)) was 1.15 fold and the “increase of AUC0–24 (systemic exposure), Group T compared to Group N” value [2, 6] was 1.61 fold. For the same compound, the “increase of AUC0–∞, Group T compared to Group N” value [2, 6] was 1.66 fold, the “AUC0–24 Ratio (Group T/Group N)” value [2, 7] was 1.61 and the “AUC0–∞ Ratio (Group T/Group N)” value [2, 7] was 1.66. For the same compound, the “CL/F Ratio (Group T/Group N)” value [2, 7] was 0.63, the “Cmax Ratio (Group T/Group N)” value [2, 7] was 1.15 and the “T1/2 Ratio (Group T/Group N)” value [2, 7] was 1.42. For the same compound, the “Tmax Ratio (Group T/Group N)” value [2, 7] was 2.22, the half-life ([3]; elderly men) was “about 21.6 h” and the half-life ([3]; normal healthy men, after administration) was “approximately 17.5 h”. It also gave a k el ([4]; Group N, non-pretreated rats) of 4.72e-05 s⁻¹, a k el [4, 8] of 3.61e-05 s⁻¹ and a Ka ([4]; Group N, non-pretreated rats) of 1.71 ± 0.91 h⁻¹. For the same compound, the V/F ([4]; Group N, non-pretreated rats) was 4.39 ± 0.78 L/kg and 4.39 ± 0.76 L/kg, the Ka [4, 8] was 1.14 ± 0.73 h⁻¹ and the V/F [4, 8] was 3.36 ± 0.95 L/kg. The “Ka Ratio (Group T/Group N)” value [4, 9] was 0.67, the “Ke Ratio (Group T/Group N)” value [4, 9] was 0.77 and the “V/F Ratio (Group T/Group N)” value [4, 9] was 0.77.

For `CCCSc1nc(N[C@@H]2C[C@H]2c2ccc(F)c(F)c2)c2nnn([C@@H]3C[C@H](OCCO)[C@@H](O)[C@H]3O)c2n1` [ticagrelor, Ticagrelor], the CYP3A inhibitor classification (CYP3A) was “weak CYP3A inhibitor”.
